Test results as given in US8058290B2, “7-substituted aza-indazoles, compositions containing same, production method and use thereof” (Aventis Pharma S.A., priority 2005, dated 2011).
Counter-ions that a name gives are not always drawn.

Legend:
Format in all cases: biochemical
human KDR enzyme = biological target: T1, human KDR enzyme (Homo sapiens, UniProt P35968); test: KDR substrate phosphorylation assay (scintillation, 96-well plate); details: cytoplasmic domain of human KDR as GST fusion, 2 μM cold ATP, 1 hour at 37° C.
T1 construct: The cytoplasmic domain of the human KDR enzyme was cloned in the form of a GST fusion; GST; made in house; host or cells: SF21 insect cells (baculovirus, pFastBac)
T1 sequence (P35968 786-1356 limits assumed): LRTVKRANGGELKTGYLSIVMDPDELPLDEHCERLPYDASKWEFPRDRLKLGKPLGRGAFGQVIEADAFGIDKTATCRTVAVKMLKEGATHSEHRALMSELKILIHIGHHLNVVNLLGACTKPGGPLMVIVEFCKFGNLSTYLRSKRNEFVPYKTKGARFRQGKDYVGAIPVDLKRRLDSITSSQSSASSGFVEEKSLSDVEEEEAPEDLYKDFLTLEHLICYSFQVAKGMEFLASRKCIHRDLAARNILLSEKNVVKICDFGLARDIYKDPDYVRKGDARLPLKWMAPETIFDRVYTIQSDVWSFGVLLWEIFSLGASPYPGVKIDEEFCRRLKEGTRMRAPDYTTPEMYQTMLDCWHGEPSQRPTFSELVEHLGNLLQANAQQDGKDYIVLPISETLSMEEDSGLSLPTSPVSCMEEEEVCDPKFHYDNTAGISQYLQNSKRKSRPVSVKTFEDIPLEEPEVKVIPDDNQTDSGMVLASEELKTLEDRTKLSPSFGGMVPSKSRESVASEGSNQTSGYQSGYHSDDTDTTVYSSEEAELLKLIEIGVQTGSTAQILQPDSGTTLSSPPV
Procedure: 2. KDR The inhibitory effect of the compounds is determined in an assay of substrate phosphorylation by the KDR enzyme in vitro using a scintillation technique (96-well plate, NEN). The cytoplasmic domain of the human KDR enzyme was cloned in the form of a GST fusion into the baculovirus expression vector pFastBac. The protein was expressed in SF21 cells and purified to approximately 60% homogeneity. The kinase activity of KDR is measured in 20 mM MOPS, 10 mM MgCl2, 10 mM MnCl2, 1 mM DTT, 2.5 mM EGTA and 10 mM b-glycerophosphate, pH=7.2, in the presence of 10 mM MgCl2, 100 μM Na3VO4 and 1 mM NaF. 10 μl of the compound are added to 70 μl of kinase buffer containing 100 ng of KDR enzyme at 4° C. The reaction is initiated by adding 20 μl of solution containing 2 μg of substrate (SH2-SH3 fragment of PLCγ expressed in the form of a GST fusion protein), 2 μCi γ^33P[ATP] and 2 μM cold ATP. After incubation for 1 hour at 37° C., the reaction is stopped by adding 1 volume (100 μl) of 200 mM EDTA. The incubation buffer is removed, and the wells are washed three times with 300 μl of PBS. The radioactivity is measured in each well using a Top Count NXT radioactivity counter (Packard). The background noise is determined by measuring the radioactivity in four different wells containing radioactive ATP and the substrate alone. A total activity control is measured in four different wells containing all the reactants (γ^33P-[ATP], KDR and PLCγ substrate) but in the absence of compound. The inhibition of the KDR activity with the compound of the invention is expressed as percentage inhibition of the control activity determined in the absence of compound. The compound SU5614 (Calbiochem) (1 μM) is included in each plate as an inhibition control.

human Tie2 = biological target: T2, human Tie2 (Homo sapiens, UniProt Q02763); test: Tie2 PLC phosphorylation assay (GST-Tie2, FlashPlate); details: GST-Tie2 intracellular domain, 2 μM cold ATP, 1 hour at 37° C.; read-out: IC 50 Tie2
T2 construct: corresponding to the intracellular domain amino acids 776-1124 was generated by PCR; made in house; host or cells: baculovirus expression (pFastBacGT)
T2 sequence (Q02763 776-1124): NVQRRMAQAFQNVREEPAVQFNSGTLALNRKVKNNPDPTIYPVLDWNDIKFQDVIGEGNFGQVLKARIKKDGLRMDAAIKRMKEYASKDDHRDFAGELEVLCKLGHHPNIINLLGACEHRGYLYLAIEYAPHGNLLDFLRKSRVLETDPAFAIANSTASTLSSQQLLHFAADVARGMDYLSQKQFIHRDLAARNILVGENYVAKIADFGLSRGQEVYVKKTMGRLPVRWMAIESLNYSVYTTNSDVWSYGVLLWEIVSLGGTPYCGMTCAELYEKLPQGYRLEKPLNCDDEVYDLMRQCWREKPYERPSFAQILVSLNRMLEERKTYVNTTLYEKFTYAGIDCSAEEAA
Procedure: The human Tie2 coding sequence corresponding to the intracellular domain amino acids 776-1124 was generated by PCR using the cDNA isolated from human placenta as model. This sequence was introduced into a baculovirus expression vector pFastBacGT in the form of a GST fusion protein.
The inhibitory effect of the molecules is determined in an assay of PLC phosphorylation by Tie2 in the presence of GST-Tie2 purified to approximately 80% of homogeneity. The substrate is composed of the SH2-SH3 fragments of PLC expressed in the form of a GST fusion protein.
The kinase activity of Tie2 is measured in a 20 mM MOPS buffer, pH 7.2, containing 10 mM MgCl2, 10 mM MnCl2, 1 mM DTT and 10 mM of glycerophosphate. In a FlashPlate 96-well plate kept on ice, a reaction mixture composed of 70 μl of kinase buffer containing 100 ng of GST-Tie2 enzyme is deposited per well. 10 μl of the test molecule diluted, in DMSO, to a concentration of at most 10% are subsequently added. For a given concentration, each measurement is carried out in quadruplicate. The reaction is initiated by adding 20 μl of solution containing 2 μg of GST-PLC, 2 μM of cold ATP and 1 μCi of ^33P[ATP]. After incubation for 1 hour at 37° C., the reaction is stopped by adding 1 volume (100 μl) of EDTA at 200 mM. After removal of the incubation buffer, the wells are washed three times with 300 μl of PBS. The radioactivity is measured on a Wallac MicroBeta1450.
The inhibition of the Tie2 activity is calculated and expressed as percentage inhibition relative to the control activity determined in the absence of compound.

human FAK = biological target: T3, human FAK (Homo sapiens, UniProt Q05397); test: FAK autophosphorylation time resolved fluorescence assay (HTRF); details: 15 μM ATP, 1 hour at 37° C.
T3 construct: The complete cDNA of human FAK, the N-terminal end of which had been labelled with histidine; made in house; host or cells: baculovirus expression (pFastBac HTc)
T3 sequence (Q05397 whole entry): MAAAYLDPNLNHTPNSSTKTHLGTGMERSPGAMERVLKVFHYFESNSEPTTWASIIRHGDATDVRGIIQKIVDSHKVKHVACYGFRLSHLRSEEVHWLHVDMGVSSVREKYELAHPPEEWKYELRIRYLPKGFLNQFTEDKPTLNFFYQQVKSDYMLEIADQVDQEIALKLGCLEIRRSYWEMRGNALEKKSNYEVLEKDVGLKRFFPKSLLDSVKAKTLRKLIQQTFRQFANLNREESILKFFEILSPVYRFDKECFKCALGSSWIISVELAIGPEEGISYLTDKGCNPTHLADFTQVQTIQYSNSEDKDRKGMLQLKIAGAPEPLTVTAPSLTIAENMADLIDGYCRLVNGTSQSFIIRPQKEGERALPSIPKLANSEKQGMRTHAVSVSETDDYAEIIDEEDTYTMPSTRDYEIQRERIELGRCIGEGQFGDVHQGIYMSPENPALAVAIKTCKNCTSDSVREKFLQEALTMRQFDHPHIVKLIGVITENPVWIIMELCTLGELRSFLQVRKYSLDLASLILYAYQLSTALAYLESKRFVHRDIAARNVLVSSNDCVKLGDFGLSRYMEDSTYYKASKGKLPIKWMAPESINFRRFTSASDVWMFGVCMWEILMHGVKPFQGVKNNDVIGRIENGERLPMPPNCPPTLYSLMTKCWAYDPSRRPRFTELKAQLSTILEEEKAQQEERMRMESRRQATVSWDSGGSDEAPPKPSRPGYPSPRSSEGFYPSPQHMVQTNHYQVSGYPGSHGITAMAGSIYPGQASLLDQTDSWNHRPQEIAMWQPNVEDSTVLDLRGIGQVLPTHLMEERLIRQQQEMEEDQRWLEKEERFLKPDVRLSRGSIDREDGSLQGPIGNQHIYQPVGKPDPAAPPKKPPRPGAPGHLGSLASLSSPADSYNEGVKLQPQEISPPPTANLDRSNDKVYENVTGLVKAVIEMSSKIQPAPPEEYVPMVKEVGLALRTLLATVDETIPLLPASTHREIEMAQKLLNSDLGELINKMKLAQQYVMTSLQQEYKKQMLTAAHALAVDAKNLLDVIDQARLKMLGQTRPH
Procedure: Determination of the Activity of the Compounds—Experimental Protocols 1. FAK
The inhibitory activity of the compounds on FAK is determined by measuring the inhibition of autophosphorylation of the enzyme using a time resolved fluorescence assay (HTRF).
The complete cDNA of human FAK, the N-terminal end of which had been labelled with histidine, was cloned into a baculovirus expression vector pFastBac HTc. The protein was expressed and purified to approximately 70% homogeneity.
The kinase activity is determined by incubating the enzyme (6.6 μg/ml) with various concentrations of test compound in a 50 mM Hepes buffer, pH=7.2, containing 10 mM MgCl2, 100 μM Na3VO4, and 15 μM of ATP for 1 hour at 37° C. […] The XL-665-specific long-lasting signal is measured in a Packard Discovery plate counter. All the assays were carried out in duplicate and the mean of the two assays is calculated. The inhibition of the FAK autophosphorylation activity with compounds of the invention is expressed as percentage inhibition relative to a control, the activity of which is measured in the absence of test compound. […]

What does the source list for `Nc1n[nH]c2nc(-c3ccc(NC(=O)Nc4cc(C(F)(F)F)ccc4F)cc3)ccc12` [Example 1, 1-[4-(3-Amino-1H-pyrazolo[3,4-b]pyridin-6-yl)phenyl]-3-(2-fluoro-5-trifluoromethylphenyl)urea]?
IC50 (human KDR enzyme): 119 nM; IC50 (human Tie2): 192 nM

Which results are given for `O=C(Nc1ccc(-c2ccc3c(NC(=O)c4ccsc4)n[nH]c3n2)cc1)Nc1cc(C(F)(F)F)ccc1F` [Example 2, Thiophene-3-carboxylic acid (6-{4-[3-(2-fluoro-5-trifluoromethylphenyl)ureido]phenyl}-1H-pyrazolo[3,4-b]pyridin-3-yl)amide]?
IC50 (human KDR enzyme): 6 nM; IC50 (human Tie2): 7 nM

How did the IC50 (human Tie2) turn out when `Nc1n[nH]c2nc(-c3ccc(NS(=O)(=O)c4cccc(Cl)c4Cl)cc3)ccc12` [Example 3, N-[4-(3-Amino-1H-pyrazolo[3,4-b]pyridin-6-yl)phenyl]-2,3-dichlorobenzenesulphonamide] was run?
Its IC50 is 75 nM.

What does the source list for `O=C(Nc1ncc(-c2cc(C(=O)NCCN3CCOCC3)c3cn[nH]c3n2)s1)Nc1cc(C(F)(F)F)ccc1F` [Example 4, 6-{2-[3-(2-Fluoro-5-trifluoromethylphenyl)ureido]thiazol-5-yl}-1H-pyrazolo[3,4-b]pyridine-4-carboxylic acid (2-morpholin-4-ylethyl)amide trifluoroacetate]?
IC50 (human KDR enzyme): 83 nM; IC50 (human Tie2): 1 nM; IC50 (human FAK): 343 nM

`CNC(=O)c1cc(-c2ccc(NS(=O)(=O)c3cccc(Cl)c3Cl)cc2)nc2[nH]ncc12` [Example 5] was tested. Which IC50 (human Tie2) did it give?
Its IC50 is 13 nM.

Which IC50 (human KDR enzyme) does the source give for `O=C(Nc1ccccc1)Nc1ncc(-c2cc(C(=O)NCCN3CCOCC3)c3cn[nH]c3n2)s1` [Example 9] here?
The IC50 was 6820 nM.

What about the IC50 (human Tie2) of the same compound?
The IC50 was 443 nM.

Which results are given for `CNC(=O)c1cc(-c2cnc(NC(=O)Nc3cc(C(F)(F)F)ccc3F)s2)nc2[nH]ncc12` [Example 11]?
IC50 (human KDR enzyme): 581 nM; IC50 (human Tie2): 8 nM; IC50 (human FAK): 927 nM

What does the source list for `CN(C)CCNC(=O)c1cc(-c2cnc(NC(=O)Nc3cc(C(F)(F)F)ccc3F)s2)nc2[nH]ncc12` [Example 12]?
IC50 (human KDR enzyme): 2360 nM; IC50 (human Tie2): 30 nM

What does the source list for `CN(C)CC(C)(C)CNC(=O)c1cc(-c2cnc(NC(=O)Nc3cc(C(F)(F)F)ccc3F)s2)nc2[nH]ncc12` [Example 13]?
IC50 (human KDR enzyme): 373 nM; IC50 (human Tie2): 4 nM

How did the IC50 (human KDR enzyme) turn out when `O=C(Nc1ncc(-c2cc(C(=O)NCCc3cnc[nH]3)c3cn[nH]c3n2)s1)Nc1cc(C(F)(F)F)ccc1F` [Example 14] was run?
The IC50 was 293 nM.

And the IC50 (human Tie2)?
The IC50 was 7 nM.

With `O=C(Nc1ncc(-c2cc(C(=O)N3CCOCC3)c3cn[nH]c3n2)s1)Nc1cc(C(F)(F)F)ccc1F` [Example 15] as the compound, how does the IC50 (human KDR enzyme) read?
Its IC50 is 70 nM.

And the IC50 (human Tie2)?
Its IC50 is 2 nM.

`O=C(Nc1ncc(-c2cc(C(=O)N3CCNCC3)c3cn[nH]c3n2)s1)Nc1cc(C(F)(F)F)ccc1F` [Example 16] was tested. Which IC50 (human KDR enzyme) did it give?
The IC50 was 200 nM.

What about the IC50 (human Tie2) of the same compound?
Its IC50 is 7 nM.

Which results are given for `CN1CCN(C(=O)c2cc(-c3cnc(NC(=O)Nc4cc(C(F)(F)F)ccc4F)s3)nc3[nH]ncc23)CC1` [Example 17]?
IC50 (human KDR enzyme): 46 nM; IC50 (human Tie2): 1 nM

With `CNC(=O)c1cc(-c2ccc(NC(=O)Nc3cc(C(F)(F)F)ccc3F)nc2)nc2[nH]ncc12` [Example 20] as the compound, how does the IC50 (human Tie2) read?
The IC50 was 777 nM.

For `O=C(Nc1ccc(-c2cc(C(=O)NCCN3CCOCC3)c3cn[nH]c3n2)cn1)Nc1cc(C(F)(F)F)ccc1F` [Example 21], which IC50 (human Tie2) is on record?
The IC50 was 6030 nM.

How did the IC50 (human KDR enzyme) turn out when `O=C(Nc1ncc(-c2cc(C(=O)NCCCN3CCOCC3)c3cn[nH]c3n2)s1)Nc1cc(C(F)(F)F)ccc1F` [Example 22] was run?
Its IC50 is 511 nM.

And the IC50 (human Tie2)?
The IC50 was 4 nM.

With `O=C(Nc1ncc(-c2cc(C(=O)NCCN3CCNCC3)c3cn[nH]c3n2)s1)Nc1cc(C(F)(F)F)ccc1F` [Example 23] as the compound, how does the IC50 (human KDR enzyme) read?
The IC50 was 527 nM.

And the IC50 (human Tie2)?
Its IC50 is 6 nM.

For `O=C(Nc1ncc(-c2cc(C(=O)NCCC3CCNCC3)c3cn[nH]c3n2)s1)Nc1cc(C(F)(F)F)ccc1F` [Example 24], which IC50 (human KDR enzyme) is on record?
Its IC50 is 133 nM.

What about the IC50 (human Tie2) of the same compound?
The IC50 was 2 nM.

What does the source list for `O=C(Nc1ncc(-c2cc(C(=O)NCCO)c3cn[nH]c3n2)s1)Nc1cc(C(F)(F)F)ccc1F` [Example 26]?
IC50 (human KDR enzyme): 387 nM; IC50 (human Tie2): 3 nM

Which results are given for `O=C(Nc1ncc(-c2cc(C(=O)NCc3ccncc3)c3cn[nH]c3n2)s1)Nc1cc(C(F)(F)F)ccc1F` [Example 28]?
IC50 (human KDR enzyme): 4660 nM; IC50 (human Tie2): 105 nM

Which results are given for `O=C(Nc1ncc(-c2cc(C(=O)NCc3ccccn3)c3cn[nH]c3n2)s1)Nc1cc(C(F)(F)F)ccc1F` [Example 29]?
IC50 (human KDR enzyme): 160 nM; IC50 (human Tie2): 3 nM

Which results are given for `O=C(Nc1ncc(-c2cc(C(=O)NCCCN3CCCC3CO)c3cn[nH]c3n2)s1)Nc1cc(C(F)(F)F)ccc1F` (stereo not shown) [Example 31]?
IC50 (human KDR enzyme): 647 nM; IC50 (human Tie2): 9 nM

Which IC50 (human Tie2) does the source give for `CNC(=O)c1cc(-c2cccc(NC(=O)Nc3cc(C(F)(F)F)ccc3F)c2)nc2[nH]ncc12` [Example 33] here?
Its IC50 is 2700 nM.

With `O=C(Nc1cccc(-c2cc(C(=O)NCCN3CCOCC3)c3cn[nH]c3n2)c1)Nc1cc(C(F)(F)F)ccc1F` [Example 34] as the compound, how does the IC50 (human Tie2) read?
The IC50 was 4140 nM.

With `O=C(Nc1ccc(C(F)(F)F)cc1)Nc1ncc(-c2cc(C(=O)NCCN3CCOCC3)c3cn[nH]c3n2)s1` [Example 55] as the compound, how does the IC50 (human KDR enzyme) read?
Its IC50 is 3540 nM.

And the IC50 (human Tie2)?
Its IC50 is 88 nM.
